Measurements taken from patent publication US6730694B1, “sPLA2 inhibitors” (Eli Lilly and Company, priority 2003, dated 2004).

Assays:
[1] = target: T1, recombinant human secreted phospholipase A2 (Homo sapiens, UniProt P14555); test: Chromogenic assay of recombinant human secreted phospholipase A2 inhibition; type: biochemical; details: diheptanoyl thio-PC substrate, pH 7.5, 40° C., 30 minutes, absorbance at 405 nanometers; read-out: Inhibition of human secreted PLA2 IC50 ± mean deviation (3-4 tests)
T1 sequence (P14555 21-144): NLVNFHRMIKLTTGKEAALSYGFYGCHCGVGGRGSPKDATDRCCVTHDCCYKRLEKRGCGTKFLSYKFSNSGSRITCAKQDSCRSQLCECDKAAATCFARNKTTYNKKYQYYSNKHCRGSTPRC
Excerpt: The following chromogenic assay procedure was used to identify and evaluate inhibitors of recombinant human secreted phospholipase A2. The assay described herein has been adapted for high volume screening using 96 well microtiter plates. A general description of this assay method is found in the article, “Analysis of Human Synovial Fluid Phospholipase A2 on Short Chain Phosphatidylcholine-Mixed Micelles: Development of a Spectrophotometric Assay Suitable for a Microtiterplate Reader”, by Laure J. Reynolds, Lori L. Hughes, and Edward A Dennis, Analytical Biochemistry, 204, pp. 190-197, 1992 (the disclosure of which is incorporated herein by reference):
Adjust pH to 4.5 with acetic acid […]
A measured volume of racemic dipheptanoyl thio PC supplied in chloroform at a concentration of 100 mg/ml is taken to dryness and redissolved in 10 millimolar […]
5. Read absorbance of wells at 405 nanometers with an automatic plate reader.
All compounds were tested in triplicate. […] Compounds initially found to be active were reassayed to confirm their activity and, if sufficiently active, IC50 values were determined. […] In all cases, % inhibition measured at 405 nanometers generated by enzyme reactions containing inhibitors relative to the uninhibited control reactions was determined. […] IC50 values were determined by plotting log concentration versus inhibition values in the range from 10-90% inhibition.

IC50 [1]: 5.5 µM
melting point: 169 to 172 °C
Structure (SMILES): CCc1c(C(=O)C(N)=O)c2ccsc2n1Cc1ccccc1 [Example 1, 2-(6-Benzyl-5-ethyl-6H-thieno[2,3-b]pyrrol-4-yl)-2-oxoacetamide]
